Measurements: patent US20180327354A1, “Unnatural Analogues of Calcitriol and Uses Thereof” (Vidasym, Inc., priority 2009, published 2018)
“Also recorded” adds a separate entry of the source.

Assays:
[1] = test system: 5/6 nephrectomized uremic rats; test: Left ventricular hypertrophy in 5/6 nephrectomized uremic rats; type: in vivo, Sprague Dawley rats; details: 5/6 NX rats, 0.16 and 0.64 μg/kg, LVH study
[2] = test system: 5/6 nephrectomized uremic rats; test: Proteinuria in 5/6 nephrectomized uremic rats; type: in vivo, Sprague Dawley rats; details: 5/6 NX rats, 3×/week, i.p. for 2 weeks, before versus after treatment
Method: The experimental conditions using the 5/6 (subtotal) nephrectomized rats were as described above. Urinary protein excretion was determined by urinary collection over a period of 24 h in metabolic cages at two time points: 24 h before the first dose and 24 hr after the last dose. Each animal was placed in a metabolic cage and urine was collected during a period of 24 h. Urinary protein concentration was determined by the biuret method (Morozova and Baryshnikova, 1991, Lab Delo 2:23-5). Total protein excretion per day was calculated by multiplying urinary protein concentration by total urine volume produced during the 24 h period.
Group mean±SEM are presented. Differences before versus after treatment were assessed using a t-test. Differences between SHAM, vehicle, and treated animals were assessed using a one-way ANOVA followed by a Dunnett's post-hoc test.

[3] = test system: thrombospondin-1; test: Thrombospondin-1 protein in human coronary artery smooth muscle cells (Western blot); type: cell-based; details: HCASMC, 48 h, FIG. 21A
Method: (§1) Human coronary artery smooth muscle cells (HCASM) were incubated with Vida-5 or Vida-11 at different concentrations for 48 h and then were solubilized in 50 al of SDS-PAGE sample buffer. The protein content in each sample was determined by the bicinchoninic acid protein assay. Samples were resolved by SDS-PAGE using a 4-12% NuPAGE gel, and proteins were electrophoretically transferred to polyvinylidene fluoride membrane for Western blotting. The membrane was blocked for 1 h at 25° C. with 5% nonfat dry milk in phosphate buffered saline Tween-20 (PBS-T) and then incubated with a mouse anti-thrombospondin-1 monoclonal antibody (2,000-fold dilution), or a mouse anti-TM monoclonal antibody (2,000-fold dilution) in PBS-T overnight at 4° C.
(§2) The membrane was washed with PBS-T and incubated with a horseradish peroxidase-labeled anti-mouse antibody for 1 h at 25° C. The membrane was then incubated with Amersham ECL Plus Western Blotting Detection Reagents. Specific bands were visualized by the Multiimage II of Alpha Innotech imaging system. Band intensity was quantified using Spot Denso.

[4] = test system: thrombomodulin; test: Thrombomodulin protein in human coronary artery smooth muscle cells (Western blot); type: cell-based; details: HCASMC, 48 h, FIG. 21B
Method: as §1, §2

Which “effect on serum Ca” value [1] does the source give for `CCC(O)(CC)CCO[C@H](C)C1CCC2/C(=C/C=C3C[C@@H](O)C4(CC4)[C@H](O)C3)CCCC21C` (stereo partly drawn) [Vida-10, (4R,8R)-6-((E)-2-((1S,7αS)-1-((R)-1-(3-ethyl-3-hydroxypentyloxy)ethyl)-7α-methyldihydro-1H-inden-4(2H,5H,6H,7H,7αH)-ylidene)ethylidene)spiro[2.5]octane-4,8-diol] here?
Its value is “no effect”.

With `C=C1[C@H](O)CC(=C/C=C2\CCCC3(C)C2CCC3[C@@H](C)OCCC(O)(CC)CC)C[C@H]1O` (stereo partly drawn) [Vida-11, (1R,3R)-5-((E)-2-((1S,3αS,7αS)-1-((R)-1-(3-ethyl-3-hydroxypentyloxy)ethyl)-7α-methyldihydro-1H-inden-4(2H, 5H, 6H, 7H, 7αH)-ylidene)ethylidene)-2-methylenecyclohexane-1,3-diol] as the compound, how does the “proteinuria (urinary protein concentration and total protein per day)” value [2] read?
Its value is “reduce proteinuria; also recorded: significantly reduced proteinuria”.

How did the “proteinuria (urinary protein concentration and total protein per day)” value [2] turn out when `C=C1[C@H](O)CC(=C/C=C2\CCCC3(C)C2CCC3[C@@H](C)OC[C@H](C)C(C)(C)O)C[C@H]1O` (stereo partly drawn) [Vida-5, (1R,3R)-5-((E)-2-((3αS,7αS)-1-((R)-1-((S)-3-hydroxy-2,3-dimethylbutoxy)ethyl)-7α-methyldihydro-1H-inden-4(2H,5H,6H, 7H, 7αH)-ylidene)ethylidene)-2-methylenecyclohexane-1,3-diol] was run?
The value was “reduce proteinuria; also recorded: significantly reduced proteinuria”.

And the thrombospondin-1 protein expression [3]?
The thrombospondin-1 protein expression was “suppress; also recorded: significantly reduced”.

What about the thrombomodulin protein expression [4] of the same compound?
Its thrombomodulin protein expression is “induce; also recorded: increased”.
